# In article PMC5920042, “KH176 Safeguards Mitochondrial Diseased Cells from Redox Stress-Induced Cell Death by Interacting with the Thioredoxin System/Peroxiredoxin Enzyme Machinery” (Scientific Reports, 2018):
# Entries after “also recorded” stand apart in the source; their conditions may differ.
# Assays:
# P4 cell line [1] = experiment: Cellular ROS assay (DCFH-DA); format: cell-based, human
# Procedure: The cells were then treated for 72 h (or shorter as indicated) with culture medium containing semi-logarithmic dilutions of the test compound. Alternatively, 3 × 10^3 cells/well were seeded when cells were treated for 24 h only. At the end of the incubation period, cells were loaded with 40 µM DCFH-DA (#D6883, Sigma-Aldrich). in M199 without phenol red for 30 min. The excess of the dye was washed with ice-cold M199 without phenol red and the cells were lysed with 100 µl/well of ice-cold 0.2% Triton X-100 in M199 without phenol red after 10 min incubation in ice. Cellular debris was spun down by centrifugation at 2600 g, 5 min, +4 °C and 90 µl/well of cell lysate were transferred to a black 96-wells plate and DCF fluorescence was measured on a scanning microplate reader (BMG FLUOstar Omega; Ex. 480 nm, Em. 520 nm).
# P4 cell line [2] = experiment: Redox Stress Survival assay (BSO-induced cell death, Calcein AM viability); format: cell-based, human; conditions: P4 cells
# Procedure: (§1) Cells were seeded at a density of 4 × 10^3 cells/well into 96-wells black plates and incubated for 24 h. To induce redox stress, semi-logarithmic dilutions of buthionine sulphoximine (BSO, #B2515, Sigma Aldrich) up to 100 µM were added to the cells in culture medium and incubated for 24 h. Cell viability was assessed by quantification of cellular conversion of Calcein AM into fluorescent Calcein. Briefly, after having discarded the BSO containing medium, cells were washed once with M199 without phenol red and loaded with 2 µM Calcein AM (#65-0853-39, Affimetrix eBioscience) in M199 without phenol red for 25 min. At the end of the incubation period, the excess of the dye was washed with M199 without phenol red and Calcein fluorescence was measured with a scanning microplate reader (BMG FLUOstar Omega; Ex. 480 nm, Em. 520 nm). For compound screening and target identification measurements cells were treated with 200 µM BSO alone or in co-incubation with semi-logarithmic dilutions of the test compound. Additionally, where indicated, increasing doses of Auranofin (AFN, #BML-EI206-0100, Enzo) or Aurothioglucose (ATG, #A0606, Sigma Aldrich) were co-incubated with BSO and the test compound. In all cases, cell viability was assessed 24 h after the treatment.
# P4 cell line [3] = experiment: Radical-Scavenging Capacity assay (CM-H2DCFDA, H2O2 or KO2); format: cell-based, human; conditions: P4 cells, 100 µM H2O2 or 1 mM KO2 (text: KOH), 3 µM compound
# Procedure: Cells were seeded at a density of 4 × 10^3 cells/well into 96-wells black plates. After 24 h the cells were loaded with 5 µM CM-H2DCFDA in M199 without phenol red for 20 min. The dye excess was washed with M199 without phenol red and immediately after, cells were treated acutely with different concentrations of the test compounds in M199 without phenol red. To generate radicals, 100 µM H2O2 or 1 mM KO2 were injected to the compound-treated cells and CM-DCF fluorescence was measured every 2 min for 70 cycles on a scanning microplate reader (BMG FLUOstar Omega; Ex. 480 nm, Em. 520 nm). The area under the generated curves was calculated using the Origin 6.1 software (OriginLab).
# [4] = tested on: primary human skin fibroblasts; experiment: CumOOH induced lipid peroxidation (bodipy 581/591 C11); format: cell-based; conditions: 30 µM cumOOH, bodipy 581/591 C11
# Procedure: The cells were seeded at a density of 3 × 10^3 cells/well into 96-wells black plates. After 24 h, the cells were coincubated with 500 nM bodipy 581/591 C11 (#D3861, Thermo Fisher) and different amounts of KH compound in M199 without phenol red. This medium was used in all subsequent washes and incubations. After 30 min. incubation the cells were washed twice and subsequently incubated with 30 μM cumene hydroperoxide (cumOOH). For background subtractions cells with the dye but without cumOOH were used. After 30 minutes incubation and two washes oxidized bodipy 581/591 C11 was quantified on an automated bioimager (BD Pathway 855), by using a 20x objective and Ex. 488/10 nm, Em. FURA/FITC. Total cellular fluorescence per well was normalized on the number of cellular pixels/well and normalized on the incubation with probe and cumOOH but without compound (vehicle set as 100%). Experiments were performed at least three times with 3 wells per experiment.
# C1 control cell line = experiment: Redox Stress Survival assay (BSO sensitivity); format: cell-based, human; conditions: C1, 24 h
# Procedure: as §1
# C2 control cell line = experiment: Redox Stress Survival assay (BSO sensitivity); format: cell-based, human; conditions: C2, 24 h
# Procedure: as §1
# C3 control cell line = experiment: Redox Stress Survival assay (BSO sensitivity); format: cell-based, human; conditions: C3, 24 h
# Procedure: as §1
# [5] = tested on: P2 cell line (Complex I, NDUFS2); experiment: Redox Stress Survival assay (BSO sensitivity); format: cell-based, human; conditions: P2, 24 h
# Procedure: as §1
# [6] = tested on: P6 cell line (Complex I, NDUFS8); experiment: Redox Stress Survival assay (BSO sensitivity); format: cell-based, human; conditions: P6, 24 h
# Procedure: as §1
compound,measurement,setting,value
"auranofin [AFN, reference compound]",Effect of thioredoxin reductase inhibition on ROS reduction by KH176m,"P4 cell line [1]; 24 hours, 100 nM AFN with 1 µM KH176m, DCFH-DA",did not affect the capacity of KH176m to reduce the DCFH-DA signal
same,Effect of thioredoxin reductase inhibition on rescue by KH176(m),"P4 cell line [2]; 200 µM BSO, 100 nM AFN",decrease of the capacity of KH176(m) to rescue the cells
"Cc1c(C)c2c(c(C)c1O)CCC(C)(C(=O)O)O2 (centres unmarked) [Trolox, reference compound]",IC50,"P4 cell line [1]; Homo sapiens, P4 cells, 72 h treatment",187 µM
same,EC50,"P4 cell line [2]; Homo sapiens, 200 µM BSO, 24 h",38 µM
COc1c(C)c(C)c2c(c1C)CC[C@@](C)(C(=O)N[C@@H]1CCCNC1)O2 [KH176i],Activity in the ROS assay,"P4 cell line [1]; P4 cells, 24 h compound treatment",inactive
same,Rescue of cell viability from BSO-induced death,"P4 cell line [2]; 200 µM BSO, 24 h",unable to rescue cell viability
same,Reduction of H2O2-induced radicals and O2.- (CM-H2DCFDA oxidation),P4 cell line [3],not
same,Effect on CumOOH induced lipid peroxidation,[4],no effect; also recorded: no activity
"CCCCS(=N)(=O)CCC(N)C(=O)O (centres unmarked) [BSO, Buthionine sulphoximine]",IC50,P4 cell line [2]; 24 h BSO up to 100 µM,3.8 µM
same,IC50 BSO,C1 control cell line,n.s.
same,IC50 BSO,C2 control cell line,n.s.
same,IC50 BSO,C3 control cell line,n.s.
same,IC50 BSO,[5],n.s.
same,IC50 BSO,[6],n.s.
